Measurements published in the NIST ThermoML archive (doi:10.1016/j.jct.2009.01.014).
Where “and” joins values, the source holds several entries; their conditions need not be identical. Equal values may be shown once.

Experiment: molar heat capacity at constant pressure
Details: 101.33 kPa, Crystal 1, Vacuum adiabatic calorimetry

[Al+3].[Al+3].[Co+2].[O-2].[O-2].[O-2].[O-2] [aluminium cobalt oxide]
Details | molar heat capacity at constant pressure
146.83 K | 57.16 J/K/mol
147.05 K | 57.28 J/K/mol
149.96 K | 58.88 J/K/mol
150 K | 58.9 J/K/mol
150.67 K | 59.3 J/K/mol
152.88 K | 60.51 J/K/mol
154.53 K | 61.45 J/K/mol
155.79 K | 62.12 J/K/mol
158.38 K | 63.57 J/K/mol
158.7 K | 63.68 J/K/mol
160 K | 64.37 J/K/mol
161.62 K | 65.3 J/K/mol
162.25 K | 65.67 J/K/mol
164.55 K | 66.89 J/K/mol
166.11 K | 67.74 J/K/mol
167.47 K | 68.46 J/K/mol
169.98 K | 69.8 J/K/mol
170 K | 69.81 J/K/mol
170.39 K | 70.02 J/K/mol
173.28 K | 71.53 J/K/mol
173.86 K | 71.81 J/K/mol
176.14 K | 73.02 J/K/mol
177.74 K | 73.82 J/K/mol
178.97 K | 74.47 J/K/mol
180 K | 74.99 J/K/mol
181.6 K | 75.79 J/K/mol
181.77 K | 75.91 J/K/mol
184.55 K | 77.27 J/K/mol
185.41 K | 77.67 J/K/mol
187.3 K | 78.65 J/K/mol
189.19 K | 79.56 J/K/mol
190 K | 79.97 J/K/mol
190.03 K | 79.99 J/K/mol
192.74 K | 81.28 J/K/mol
192.91 K | 81.34 J/K/mol
195.43 K | 82.61 J/K/mol
196.6 K | 83.11 J/K/mol
198.09 K | 83.83 J/K/mol
200 K | 84.73 J/K/mol
200.24 K | 84.85 J/K/mol
200.74 K | 85.08 J/K/mol
203.36 K | 86.29 J/K/mol
203.85 K | 86.5 J/K/mol
205.97 K | 87.49 J/K/mol
207.42 K | 88.12 J/K/mol
208.56 K | 88.63 J/K/mol
210 K | 89.28 J/K/mol
210.96 K | 89.71 J/K/mol
211.13 K | 89.82 J/K/mol
213.68 K | 90.9 J/K/mol
214.47 K | 91.27 J/K/mol
216.22 K | 92.07 J/K/mol
217.95 K | 92.81 J/K/mol
218.74 K | 93.14 J/K/mol
220 K | 93.68 J/K/mol
221.25 K | 94.2 J/K/mol
221.4 K | 94.18 J/K/mol
223.74 K | 95.23 J/K/mol
224.82 K | 95.65 J/K/mol
226.22 K | 96.27 J/K/mol
228.21 K | 97.04 J/K/mol
228.69 K | 97.25 J/K/mol
230 K | 97.8 J/K/mol
231.14 K | 98.26 J/K/mol
231.58 K | 98.37 J/K/mol
233.58 K | 99.23 J/K/mol
234.92 K | 99.71 J/K/mol
236.01 K | 100.16 J/K/mol
238.24 K | 101.02 J/K/mol
238.42 K | 101.09 J/K/mol
240 K | 101.73 J/K/mol
240.83 K | 102.05 J/K/mol
241.54 K | 102.25 J/K/mol
243.22 K | 102.92 J/K/mol
244.81 K | 103.49 J/K/mol
245.59 K | 103.81 J/K/mol
247.96 K | 104.73 J/K/mol
248.06 K | 104.72 J/K/mol
250 K | 105.45 J/K/mol
250.32 K | 105.57 J/K/mol
251.29 K | 105.92 J/K/mol
252.67 K | 106.55 J/K/mol
254.51 K | 106.81 J/K/mol
255.02 K | 106.86 J/K/mol
257.35 K | 107.86 J/K/mol
257.71 K | 108 J/K/mol
259.68 K | 108.69 J/K/mol
260 K | 108.81 J/K/mol
260.89 K | 109.14 J/K/mol
261.99 K | 109.47 J/K/mol
264.06 K | 110.17 J/K/mol
264.3 K | 110.3 J/K/mol
266.6 K | 111.11 J/K/mol
267.21 K | 111.27 J/K/mol
268.89 K | 111.88 J/K/mol
270 K | 112.21 J/K/mol
270.34 K | 112.32 J/K/mol
271.18 K | 112.63 J/K/mol
273.45 K | 113.32 J/K/mol and 113.36 J/K/mol
275.72 K | 114.12 J/K/mol
276.55 K | 114.32 J/K/mol
277.98 K | 114.86 J/K/mol
279.64 K | 115.3 J/K/mol
280 K | 115.49 J/K/mol
280.23 K | 115.61 J/K/mol
282.47 K | 116.23 J/K/mol
282.71 K | 116.25 J/K/mol
284.71 K | 117.01 J/K/mol
285.76 K | 117.27 J/K/mol
286.94 K | 117.64 J/K/mol
288.8 K | 118.11 J/K/mol
289.16 K | 118.27 J/K/mol
290 K | 118.56 J/K/mol
291.38 K | 118.88 J/K/mol
291.83 K | 118.87 J/K/mol
293.59 K | 119.39 J/K/mol
294.84 K | 119.71 J/K/mol
295.8 K | 120.14 J/K/mol
297.85 K | 120.6 J/K/mol
298 K | 120.75 J/K/mol
298.15 K | 120.8 J/K/mol
300 K | 121.29 J/K/mol
300.19 K | 121.32 J/K/mol
300.84 K | 121.4 J/K/mol
302.38 K | 121.76 J/K/mol
304.56 K | 122.44 J/K/mol
306.74 K | 123.1 J/K/mol
308.91 K | 123.82 J/K/mol
310 K | 124.03 J/K/mol
311.08 K | 124.21 J/K/mol
314.58 K | 125.39 J/K/mol
316.31 K | 125.57 J/K/mol
318.27 K | 126.1 J/K/mol
320 K | 126.56 J/K/mol
320.27 K | 126.63 J/K/mol
322.26 K | 127.06 J/K/mol
324.24 K | 127.71 J/K/mol
326.23 K | 128.15 J/K/mol
328.22 K | 128.71 J/K/mol
330 K | 129.18 J/K/mol
330.21 K | 129.23 J/K/mol
332.21 K | 129.58 J/K/mol
334.2 K | 130.14 J/K/mol
336.19 K | 130.48 J/K/mol
338.18 K | 131.04 J/K/mol
340 K | 131.5 J/K/mol
340.18 K | 131.54 J/K/mol
342.17 K | 132 J/K/mol
344.16 K | 132.51 J/K/mol
346.15 K | 132.95 J/K/mol
348.15 K | 133.41 J/K/mol
350 K | 133.79 J/K/mol
350.14 K | 133.82 J/K/mol
352.14 K | 134.31 J/K/mol
354.14 K | 134.84 J/K/mol
356.13 K | 135.27 J/K/mol
358.13 K | 135.71 J/K/mol
360 K | 136.1 J/K/mol
360.13 K | 136.12 J/K/mol
362.13 K | 136.47 J/K/mol
364.13 K | 136.92 J/K/mol
366.13 K | 137.31 J/K/mol
368.13 K | 137.72 J/K/mol
370 K | 138.26 J/K/mol
370.14 K | 138.29 J/K/mol
372.14 K | 138.51 J/K/mol
374.14 K | 138.93 J/K/mol
376.14 K | 139.33 J/K/mol
378.15 K | 139.67 J/K/mol
380 K | 140.09 J/K/mol
380.15 K | 140.12 J/K/mol
382.16 K | 140.49 J/K/mol
384.17 K | 140.86 J/K/mol
386.17 K | 141.18 J/K/mol
388.18 K | 141.53 J/K/mol
390 K | 141.96 J/K/mol
390.19 K | 142 J/K/mol
392.2 K | 142.2 J/K/mol
394.22 K | 142.53 J/K/mol
396.23 K | 142.78 J/K/mol
398.24 K | 143.19 J/K/mol
400.25 K | 143.52 J/K/mol
